In ChEMBL document CHEMBL1139563, “Synthesis of all-trans arachidonic acid and its effect on rabbit platelet aggregation” (Bioorg Med Chem Lett, 2005):

Columns and labels:
Type in all cases: functional
Oryctolagus cuniculus [1] = species: Oryctolagus cuniculus; assay: Inhibitory activity against PAF (4e-10 M) induced aggregation of rabbit platelet at 3E-5 M concentration
Oryctolagus cuniculus [2] = species: Oryctolagus cuniculus; assay: Inhibitory activity against PAF (4e-10 M) induced aggregation of rabbit platelet at 1.5E-5 M concentration
Oryctolagus cuniculus [3] = species: Oryctolagus cuniculus; assay: Inhibitory concentration against PAF (8E-10M) induced aggregation of rabbit platelet at 2.1E-4 M concentration
Oryctolagus cuniculus [4] = species: Oryctolagus cuniculus; assay: Inhibitory activity against PAF (4e-10 M) induced aggregation of rabbit platelet at 1.5E-6 M concentration
Oryctolagus cuniculus [5] = species: Oryctolagus cuniculus; assay: Inhibitory activity against PAF (4e-10 M) induced aggregation of rabbit platelet at 2.1E-4 M concentration
Oryctolagus cuniculus [6] = species: Oryctolagus cuniculus; assay: Inhibitory activity against PAF (4e-10 M) induced aggregation of rabbit platelet at 7.5E-5 M concentration
Oryctolagus cuniculus [7] = species: Oryctolagus cuniculus; assay: Inhibitory activity against PAF (8E-10M) induced aggregation of rabbit platelet at 2.1E-4 M concentration

Work on CCCCC/C=C\C/C=C\C/C=C\C/C=C\CCCC(=O)O [ARACHIDONIC ACID] yielded an Inhibition (Oryctolagus cuniculus [1]) of 24%, an Inhibition (Oryctolagus cuniculus [2]) of 6% and an IC50 (Oryctolagus cuniculus [3]) of roughly 60 µM. It also gave an Inhibition (Oryctolagus cuniculus [4]) of 0%, an Inhibition (Oryctolagus cuniculus [5]) of 100% and an Inhibition (Oryctolagus cuniculus [6]) of 61%. The Inhibition (Oryctolagus cuniculus [7]) was 100%.
